Laboratory results reported in patent US20190072562A1, “SYSTEM AND METHOD FOR DETERMINATION OF LIGAND-TARGET BINDING BY MULTI-PHOTON FLUORESCENCE ANISOTROPY MICROSCOPY” (THE GENERAL HOSPITAL CORPORATION, priority 2014, published 2019).

How the values were obtained:
[1] = target: T1, PARP1 (Homo sapiens, UniProt P09874); test: FLIM fluorescence lifetime upon binding to PARP1 in vitro
Method: Fluorescence lifetime imaging was performed using a Zeiss 710 confocal NLO laser scanning system on an upright Zeiss Examiner stand with a 40×NA 1.1 water immersion LD CApochromat objective and a Becker & Hickl TCSPC system. Two-photon excitation was achieved using a Coherent Chameleon Vision II tunable laser (680-1040 nm) that provided 140-femtosecond pulses at a 80-Mhz repetition rate with an output power of 3 W at the peak of the tuning curve (800 nm). Laser scanning was controlled by Zeiss Zen software and set to a pixel dwell time of 1.58 microseconds and 0.9-sec frame rate at 910 nm wavelength excitation.
Enhanced detection of the scattered component of the emitted (fluorescence) photons was afforded by the use of a Becker & Hickl HPM-100-40 hybrid detector, which incorporates the Hamamatsu R10467 hybrid PMT tube Imaging was performed in the dark with blackout enclosure around the microscope to exclude external sources of light during the sensitive period of FLIM measurement. Emitted fluorescence was deflected to the non-descanned light path via a 760+ mirror and emission range was limited to 500-550 nm by a Chroma filter in front of the HPM-100-40 detector. […]
where r0 is the fundamental anisotropy of the dye-dependent on the orientation of the excitation and emission dipole moments. […] The fluorescent microspheres (100% and 30%) had the same fluorescence lifetime, 3.6±0.3 nsec. […]

[2] = test system: PARP; test: In vivo MFAM imaging of drug target engagement in HT1080 tumor, mouse dorsal skinfold window chamber
Method: All animal experiments were performed in accordance with the Institutional Animal Care and Use Committee at Massachusetts General Hospital. Female 20-weeks old nude mice (Cox-7, Massachusetts General Hospital) were used. All surgical procedures were conducted under sterile conditions and facilitated through the use of a zoom stereomicroscope (Olympus SZ61). During all surgical procedures and imaging experiments mice were anesthetized by isofluorane vaporization (Harvard Apparatus) at a flow rate of […]: 2 L/minute oxygen. The body temperature of the mice was kept constant at 37° C. during all imaging experiments and surgical procedures. Dorsal skinfold window chambers (DSC) were implanted one day prior to imaging following a well-established protocol. Briefly, the two layers of skin on the back of the mouse were stretched and kept in place by the DSC. One skin layer was surgically removed and replaced by a 12-mm diameter glass cover slip positioned on one side of the DSC allowing for convenient access and imaging of the tumor area. A spacer located on the DSC prevented excessive compression of both tissue and vessel guaranteeing good vascularperfusion within the tumor region.
HT1080 H2B mApple cells were harvested by trypsinization (0.25% trypsin:EDTA) and resuspended in PBS. […]

[3] = target: T2, PARP (Homo sapiens, UniProt P09874); test: In vitro cellular MFAM imaging of drug target engagement in live cells; format: cell-based
T2 construct: endogenous in cells; host or cells: HT1080
Method: HT1080 cells (ATCC) stably expressing H2B mApple fluorescent protein were cultured in DMEM with 10% FBS, 1% pen-strep and 100 μg/ml geneticin (Invitrogen). HT1080 cells were cultured in DMEM with 10% FBS and 1% pen-strep. […] Cells were plated onto 25 mm #1 cover glass for in vitro imaging.
Cells on 25 mm cover glass were mounted into a closed bath perfusion chamber (Warner Instruments) and perfused with a custom perfusion system that enabled solution switching in the imaging chamber. Cells were imaged in phenol red-free DMEM with 10% FBS and 1% pen-strep. AZD2281-BODIPY FL (1 μM) was perfused into the imaging chamber followed by a washout with drug free media. Images were obtained during the entire time interval at regular time points. For competition experiments, free AZD2281 (5 μM) (Selleck Chemicals) was added to the incubating solution before during and after AZD2281-BODIPY FL addition. Me5-BODIPY was used for fluorophore control experiments.
(§1) Images were analyzed in Matlab (Mathworks) and ImageJ. All anisotropy measurements were calculated from the equation r=(I∥−I⊥)/(I∥+2I⊥). The detector noise of the two photodetectors was subtracted from the whole images before the data were processed. Fluorescence images represent the denominator of the anisotropy equation, which represents the entire fluorescence from the sample. Anisotropy values were obtained by defining a region of interest and measuring the average anisotropy within that region. Regions were extended to fluorescent images to calculate the corresponding intensity. […]

[4] = target: T1, PARP1; test: MFAM fluorescence anisotropy of free vs PARP1-bound AZD2281-BODIPY FL in solution; format: binding; conditions: PARP1 at 1.6x of 5 μM probe, imaging media with 2.5% FBS
Method: AZD2281 labeled with BODIPY FL (AZD2281-BODIPY FL) was prepared as previously described (see Thurber, G. M. et al., Single-cell and subcellular pharmacokinetic imaging allows insight into drug action in vivo, Nat Commun, 4, 1504, (2013), for example). PARP1 (BioVision) was brought up in the manufactures recommended solution and added at 1.6× the concentration of AZD2281-BODIPY FL (5 μM) in imaging media containing 2.5% FBS. Free AZD2281-BODIPY FL (5 μM) (no PARP) in the same imaging media with 2.5% FBS and in DMSO solutions were also made. Images were taken of drops of solution between cover glass.
as §1

[5] = target: T3, NeutrAvidin (Gallus gallus, UniProt P02701); test: Biotin-BODIPY and NeutrAvidin binding by MFAM anisotropy; conditions: 10x unlabeled biotin (100 μM)
T3 construct: purchased Thermo Scientific
Method: Biotin was conjugated to Me5-BODIPY (Biotin-BODIPY) and brought to 1 mM stock solution in DMSO. Biotin-BODIPY (10 μM) was mixed with varying concentrations of NeutrAvidin (Thermo Scientific) in PBS with 1% Triton X (Sigma). Each sample was imaged in triplicate as a drop between a microscope slide and cover glass. Measurements of each sample were also performed using single photon excitation in a plate reader. Measurements were also made in the presence of 100 μM free Biotin to competitively compete with the Biotin-BODIPY.

T2 sequence (P09874 2-1014): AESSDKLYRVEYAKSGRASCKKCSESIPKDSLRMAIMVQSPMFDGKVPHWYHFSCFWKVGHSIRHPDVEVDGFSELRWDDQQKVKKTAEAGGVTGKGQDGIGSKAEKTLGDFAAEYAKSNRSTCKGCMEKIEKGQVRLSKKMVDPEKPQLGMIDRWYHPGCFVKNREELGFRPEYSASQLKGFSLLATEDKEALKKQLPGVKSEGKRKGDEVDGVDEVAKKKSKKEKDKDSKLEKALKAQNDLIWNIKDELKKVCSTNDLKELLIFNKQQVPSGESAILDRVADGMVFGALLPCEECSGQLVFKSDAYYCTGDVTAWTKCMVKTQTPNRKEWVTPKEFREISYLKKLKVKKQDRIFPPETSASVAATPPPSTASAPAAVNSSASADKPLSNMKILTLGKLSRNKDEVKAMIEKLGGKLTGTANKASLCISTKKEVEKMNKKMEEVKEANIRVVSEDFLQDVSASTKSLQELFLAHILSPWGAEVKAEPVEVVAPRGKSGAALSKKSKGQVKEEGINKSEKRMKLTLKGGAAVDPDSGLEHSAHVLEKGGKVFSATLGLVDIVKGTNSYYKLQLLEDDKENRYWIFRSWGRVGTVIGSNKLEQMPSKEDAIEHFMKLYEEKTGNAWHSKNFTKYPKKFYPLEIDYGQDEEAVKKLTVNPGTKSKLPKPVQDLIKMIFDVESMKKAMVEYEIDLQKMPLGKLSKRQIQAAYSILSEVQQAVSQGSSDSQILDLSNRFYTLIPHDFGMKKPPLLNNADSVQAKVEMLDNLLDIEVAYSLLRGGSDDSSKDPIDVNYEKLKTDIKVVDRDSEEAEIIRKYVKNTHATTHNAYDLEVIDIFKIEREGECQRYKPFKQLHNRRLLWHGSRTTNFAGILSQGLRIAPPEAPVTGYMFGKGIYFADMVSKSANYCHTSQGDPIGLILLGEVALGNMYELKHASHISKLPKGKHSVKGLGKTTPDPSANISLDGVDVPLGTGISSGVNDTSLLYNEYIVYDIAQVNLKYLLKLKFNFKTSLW
T1 sequence (P09874 whole entry): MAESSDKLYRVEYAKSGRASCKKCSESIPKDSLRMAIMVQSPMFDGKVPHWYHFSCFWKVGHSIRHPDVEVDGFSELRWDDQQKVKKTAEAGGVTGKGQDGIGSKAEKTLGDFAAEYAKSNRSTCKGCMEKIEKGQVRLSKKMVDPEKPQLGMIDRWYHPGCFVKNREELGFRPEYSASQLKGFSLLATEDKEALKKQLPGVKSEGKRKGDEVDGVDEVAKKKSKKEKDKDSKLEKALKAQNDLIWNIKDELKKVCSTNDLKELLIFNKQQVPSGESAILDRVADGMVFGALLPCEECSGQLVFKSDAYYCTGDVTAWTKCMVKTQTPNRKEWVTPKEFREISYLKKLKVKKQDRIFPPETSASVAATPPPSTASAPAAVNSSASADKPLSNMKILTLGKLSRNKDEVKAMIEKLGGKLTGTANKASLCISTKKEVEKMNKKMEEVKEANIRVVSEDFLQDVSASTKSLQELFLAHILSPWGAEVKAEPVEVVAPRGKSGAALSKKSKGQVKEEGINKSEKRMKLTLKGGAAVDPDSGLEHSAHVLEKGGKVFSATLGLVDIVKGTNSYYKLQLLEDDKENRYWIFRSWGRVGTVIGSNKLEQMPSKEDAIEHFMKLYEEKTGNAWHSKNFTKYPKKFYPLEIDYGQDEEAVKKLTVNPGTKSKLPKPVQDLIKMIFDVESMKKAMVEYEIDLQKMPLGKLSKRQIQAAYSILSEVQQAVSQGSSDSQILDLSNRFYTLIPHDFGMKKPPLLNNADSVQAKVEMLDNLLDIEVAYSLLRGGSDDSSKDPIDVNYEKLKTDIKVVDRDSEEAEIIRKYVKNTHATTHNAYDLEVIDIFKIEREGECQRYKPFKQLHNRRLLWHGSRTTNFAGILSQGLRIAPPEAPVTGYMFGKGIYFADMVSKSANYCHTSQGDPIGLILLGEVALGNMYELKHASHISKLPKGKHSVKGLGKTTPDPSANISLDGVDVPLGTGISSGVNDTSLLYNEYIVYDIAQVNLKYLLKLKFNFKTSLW
T3 sequence (P02701 25-152): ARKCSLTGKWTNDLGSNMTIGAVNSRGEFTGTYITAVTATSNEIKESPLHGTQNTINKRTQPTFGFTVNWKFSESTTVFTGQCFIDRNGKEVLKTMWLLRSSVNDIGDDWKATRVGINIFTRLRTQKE

| Compound | fluorescence lifetime ([1]; bound to PARP1) | fluorescence lifetime ([1]; unbound) | nuclear anisotropy over time in vivo ([2]; after intravenous infusion vs 34 minutes later) | binding to PARP in the nucleus in vivo ([2]; intravenous, implanted HT1080 H2B mApple tumor) | localisation of bound drug (high anisotropy) ([3]; HT1080 cells incubated with probe) | bound drug after extended washing cycles ([3]; HT1080 cells, after washing) | target binding in the cytoplasm ([3]; HT1080 cells, loading and washing) | anisotropy of target-bound over free or intracellular drug [4] | anisotropy increase of Biotin-BODIPY in presence of unlabeled competitor [5] |
| --- | --- | --- | --- | --- | --- | --- | --- | --- | --- |
| Cc1cc(C)n2c1C=C1C=CC(CCC(=O)N3CCN(C(=O)c4cc(Cc5n[nH]c(=O)c6ccccc56)ccc4F)CC3)=[N+]1[B-]2(F)F [AZD2281-BODIPY FL] | 3.3±0.3 nsec | 4.1±0.3 nsec | the nuclear anisotropy increased | occurred immediately upon drug infusion | bound drug was present in the nucleus | the nuclear, bound drug remains | no target binding | significant increase in anisotropy |  |
| O=C(O)CCCC[C@@H]1SC[C@@H]2NC(=O)N[C@@H]21 [biotin] |  |  |  |  |  |  |  |  | suppressed |
